Patent US9895334B2, “Treatment of virally induced lesions” (LEO Laboratories Limited, priority 2007, dated 2018)

Test system: Cottontail Rabbit Papilloma Virus (CRPV) cutaneous warts
Experiment: Cottontail Rabbit Papilloma Virus (CRPV) model of cutaneous warts: wart surface area after topical gel
Format: in vivo, Hra(NZW)SPF New Zealand White Rabbits
Description: Efficacy of Ingenol-3-angelate (PEP005) Topical Gel in a Cottontail Rabbit Papilloma Virus (CRPV) model of cutaneous warts in Hra(NZW)SPF New Zealand White Rabbits.
Ch 25. In: Zak O, Sande M A, editors. Handbook of animal models of infection. New York: Academic Press; 1999. p. 1039-47). Concentrations of the inoculant were selected empirically based on published information for the CRPV model in which cutaneous papillomas (warts) were induced in rabbits (Christensen N D. Cottontail rabbit papillomavirus (CRPV) model system to test antiviral and immunotherapeutic strategies. Antiviral chemistry & chemotherapy 2005; 16(6):355-62). The percutaneous route was selected because this route has been successfully used to establish cutaneous papilloma (wart) formation in rabbits following inoculation with CRPV DNA.
Ten female Hra:(NZW)SPF New Zealand White (NZW) female rabbits were randomly assigned to four dose groups, three rabbits per dose group in Groups 1 through 3 and one rabbit in Group 4.
Four days before inoculation (DS-4), the backs of the rabbits were shaved over an area encompassing all eight exposure sites using an electric clipper with an appropriate blade. Following clipping, the skin was chemically depilated with Veet® (distributed by Reckitt Benckiser Inc., Parsippany, N.J., USA). The clipped area (approximately 10 cm×20 cm) extended from the shoulders to the hip joints of each rabbit and was approximately 10 cm wide (extending ventrolaterally from the dorsal midline approximately 5 cm on each side). Any re-growth of hair was carefully clipped, as needed throughout the study.
Three days before inoculation, rabbits were anesthetized with isoflourane/oxygen and the exposure sites on each rabbit were tattooed (Aims Black Pigment #242, AIMS Inc, Piscataway, N.J., USA, lot number F0707A, expiration date 30 Jun. 2008) on either side of each inoculation site. Each exposure site was carefully scarified using a scalpel blade (#60) to create a brush burn-like lesion in order to promote wart growth following inoculation. Rabbits were monitored constantly for signs of regular breathing and comfort while anesthetized and until full recovery from anesthesia. […]
Daily observations for development of the warts began during week 4 and continued until the first day of test article or placebo administration. The length and width of each cutaneous wart was recorded from the day of first observation to the completion of the study.
Dose administration of PEP005 Topical Gel or placebo began on DS 50. […] The treatment area of each dosing site was determined from the most recent length and width measurements of each wart (mm^2). […]

C/C=C(/C)C(=O)O[C@H]1C(C)=C[C@]23C(=O)[C@@H](C=C(CO)[C@@H](O)[C@]12O)[C@H]1[C@@H](C[C@H]3C)C1(C)C [PEP005, ingenol-3-angelate]
Average percentage change in wart area relative to Day 50 (0.1% PEP005, 3 day treatment, Days 51-57): 2.1%
Average percentage change in wart area relative to Day 50 (0.1% PEP005, 3 day treatment, Days 56-64): −4.7%
Average percentage change in wart area relative to Day 50 (0.1% PEP005, 5 day treatment, Days 51-57): 17.5%
Average percentage change in wart area relative to Day 50 (0.1% PEP005, 5 day treatment, Days 56-64): 3.9%
